This is an account of results in US11446299B2, “Carbazole EHop-016 derivatives as anticancer and anti-migratory agents” (UNIVERSITY OF PUERTO RICO, priority 2017, dated 2022).

Each structure is given as a SMILES string. Where two headings read alike, the source gives them in different places. Bounds are passed on as bounds.

Series [1] relates to MDA-MB-231 cancer cells. The series can be described thus: Sulforhodamine B (SRB) growth inhibition assay. It counts as cell-based, human. Conditions: for GI50: Homo sapiens, MDA-MB-231, SRB assay, 24 h treatment, mean of triplicate, SD <10%; for anti-proliferative activity / cytotoxicity in words: MDA-MB-231, concentrations ≤50 μM. The protocol:
(§1) Various compounds were tested to evaluate the dose response curve for effect on MCF-7 cancer cells and MDA-MB-231 cancer cells. MCF-7 and MDA-MB-231 cells were cultured in 10% Minimum Essential Medium Eagle (MEME) supplemented with Earle's Balanced Salt Solution (EBSS), Non-essential Amino acids (NEAA), Sodium pyruvate, Pen/Strep, L-glutamine and Fetal Bovine Serum (FBS) at 37° C. in 5% CO2.
(§2) Sulforhodamine B (SRB) Assay: A stock solution of compounds was prepared at 50 mM in 100% DMSO. For cells preparation, a flask of 75 cm^2 or 25 cm^2 were used for 2.6×10^5 cells or 1.44×10^5 cells respectively with an 80-90% of confluence. Cells were washed with PBS and trypsinized. The concentration of cells was determined using a 1:2 dilutions with Trypan Blue and a hemocytometer. After cell count, the concentration was adjusted to have a 1.9×10^4 cells/well. Approximately […] of cells suspension, compounds, control positive and control negative were added in triplicates to a 96 well plate. Positive controls used were ellipticine, doxorubicin, and/or vincristine, and the negative control was DMSO 0.1%. All compounds at 50, 25, 12.5, 6.3, and 1.6 μM were incubated with cells at 37° C. for 24 hrs. For fixation, cold TCA 50% was used and incubated at 4° C. for 1 hr. Wells were washed and dried prior to tincture with 100 μL of SRB 0.4%. To remove excess of SRB, acetic acid was used. For analysis, TRIS-BASE Solution (pH=10.5) was used and shacked prior to reading using an ELISA reader at 510 nm and the software SoftMax Pro 4.8.
(§3) For each compound, 50% growth inhibition (GI50) was calculated from Sigmoidal dose-response curves (variable-slope) that were generated with data obtained from experiments carried out in triplicates (GI50 values were generated with GraphPad Prism V. 6.02, GraphPad Software, Inc.). The results are presented in FIGS. 4A-4B (MCF-7 cancer cells) and FIGS. 5A-5B (MDA-MB-231 cancer cells).
Background: The SRB assay estimates cell density from bound dye.

Series [2] deals with MDA-MB-231 breast cancer cells. In words: Wound healing assay (scratch method), cell migration. In kind it is cell-based, human. Conditions: Homo sapiens, MDA-MB-231; for activity at 10 µM: percent relative migration at 10 μM after 24 h, relative to control; for inhibition at 10 µM: read-out: anti-migratory activity (inhibition of migration). As for the experimental part: The experimental data of anti-migratory activities for compounds 3a-d and 4a-f were obtained using MDA-MB-231 breast cancer cells. For the migration assay, a wound-healing assay (scratch-wound assay) was utilized in the presence of vehicle (0.02% DMSO) or compounds at […].
Prior to assays, cells were grown until 80-90% confluence was observed. A 75 cm2 flask was used for 2.6×10^5 cells/mL in 10 mL and for a 25 cm2 flask 1.44×10^5 cells/mL in 5 mL. The cells were washed with PBS to remove all traces of FBS. 2 mL was added for a 25 cm2 flasks or 4 mL for a 75 cm2 flasks trypsin, and incubated 5-10 min at 37° C. At the end of the incubation time, cells were re-suspended and counted with hemocytometer using 1:2 dilutions with Trypan blue. Subsequently, cell viability was calculated. In a 12 multiwell plate, the plastic pattern was used to draw a fine space with a fine marker on the bottom of the plate. Cells were seeded at 1.5-2.2×10^5 cells/mL in 1 mL and incubated for 24 h. Cells were then rinsed with PBS and incubated in starving media (0.5% FBS) overnight. All controls and drugs were tested in triplicate. The negative control for each drug was prepared according to the drug's DMSO concentration.
Drugs were diluted and the final concentration at each well […]. The wound was made using a sterile pipette tip of […]. Cells were then rinsed very gently with media without FBS and media with negative controls was added. After a 24 h incubation, the gap distance was evaluated using the software Lumera Infinity Analyze 6.4.0. Pictures were taken at 0, 8, 12 and 24 h using a 10× objective. The percentage of migration was calculated using the following formula: 100−[(X0/X0)]*100 for time 0 h measurements 100−[(X24/X0)]*100 for time 24 h measurements
The experimental data of anti-migratory activities for compounds 3a-d and 4a-f were obtained using MDA-MB-231 breast cancer cells, and results are summarized in Table 1. For the migration assay, we used a wound-healing assay (scratch-wound assay)^22 in the presence of vehicle (0.02% DMSO) or compounds at 10 μM (FIG. 6). […] However, compounds 3a, 3c, and 4a-f inhibited migration in the range of 1-9%.
An additional example of a compounds with modification in building block C was synthesized via a different procedure as represented in Scheme 2B (see FIG. 11B). The compounds that were synthesized were tested for their biological activity by determination of their cytotoxicity in MDA-MB-231 breast cancer cell lines as shown in Table 5. The cytotoxicity's are expressed as IC50, which indicates the concentration at which 50% of the cell growth is inhibited. Furthermore, the inhibition of cell migration was tested at a concentration of 0.2×IC50, or, when the IC50 was >50 μM at a concentration of 10 μM. For comparison, Table 5 also includes the Lipinski and drug-likeness parameters as calculated via the MolSoft platform.
Migration assays were performed via the Scratch Method as described previously.

Series [3] deals with MCF-7 cancer cells. The series can be described thus: Sulforhodamine B (SRB) growth inhibition assay. It counts as cell-based. Conditions: Homo sapiens, MCF7, 24 h treatment, mean of triplicate, SD <10%. The protocol: as §1, §2, §3

As usually defined, the GI50 is the concentration giving 50% growth inhibition. Turning to `CCn1c2ccccc2c2cc(NC(=O)c3cccnc3N3CCN(C(C)=O)CC3)ccc21` [Compound 3a, 2-(4-acetylpiperazin-1-yl)-N-(9-ethyl-9H-carbazol-3-yl)nicotinamide], the GI50 in series [1] and in series [3] was above 50 µM throughout. In series [2], this compound returned an activity at 10 µM of 93 ± 11.7%.
As for `CCn1c2ccccc2c2cc(NC(=O)c3cccnc3N3CCOCC3)ccc21` [Compound 3b, N-(9-ethyl-9H-carbazol-3-yl)-2-morpholinonicotinamide], the GI50 in series [1] and in series [3] was above 50 µM each time. In series [1], the “anti-proliferative activity / cytotoxicity in words” value is on record as “no anti-proliferative activity”. Also, the “anti-proliferative activity in words” value in series [1] (MDA-MB-231 at <50 pM as printed) is “minor anti-proliferative activity”. In addition, the inhibition at 10 µM was 32% in series [2] and 32% in series [2] (at 10 μM, 24 h). The activity at 10 µM in series [2] came to 68 ± 10.5%.
Regarding `CCn1c2ccccc2c2cc(NC(=O)c3cccnc3N3CCN(c4ccccc4)CC3)ccc21` [Compound 3c, N-(9-ethyl-9H-carbazol-3-yl)-2-(4-phenylpiperazin-1-yl)nicotinamide], the GI50 in series [1] and in series [3] was above 50 µM each time. The activity at 10 µM in series [2] amounted to 99 ± 1.89%.
Regarding `CCn1c2ccccc2c2cc(NC(=O)c3cccnc3NCCCN3CCOCC3)ccc21` [Compound 3d], the GI50 is 19 µM in series [1] and above 50 µM in series [3]. For the same compound, the inhibition at 10 µM in series [2] turned out to be 24%; in series [2] (at 10 μM, 24 h), 24%. The activity at 10 µM in series [2] was 76 ± 7.87%.
For `CCn1c2ccccc2c2cc(Nc3ncccc3C(=O)NCCCN3CCOCC3)ccc21` [Compound 4a, 2-(9-ethyl-9H-carbazol-3-ylamino)-N-(3-norpholinopropyl)nicotinamide], the concentration for 50% growth inhibition (GI50) in series [1] is above 50 µM; in series [3], 28 µM. Moreover, the activity at 10 µM in series [2] was 99 ± 1.28%.
In the case of `CCn1c2ccccc2c2cc(Nc3ncccc3C(=O)NCCN3CCN(C(=O)OC(C)(C)C)CC3)ccc21` [Compound 4b], the GI50 in series [1] and in series [3] was above 50 µM each time. In series [2], this compound displayed an activity at 10 µM of 95 ± 9.8%.
As for `CCn1c2ccccc2c2cc(Nc3ncccc3C(=O)NCCCn3ccnc3)ccc21` [Compound 4c, N-(3-(1H-imidazol-1-yl)propyl)-2-((9-ethyl-9H-carbazol-3-yl)amino)nicotinamide], the GI50 was above 50 µM in series [1] and 27 µM in series [3]. In series [2], this compound gave an activity at 10 µM of 93 ± 2.01%.
The corresponding values for `CCN(CC)CCCC(C)NC(=O)c1cccnc1Nc1ccc2c(c1)c1ccccc1n2CC` (stereo not shown) [Compound 4d, N-(4-Diethylamino-1-methyl-butyl)-2-(9-ethyl-9H-carbazol-3-ylamino)-nicotinamide] are 18 µM, 13 µM and 91 ± 14.1%.
Consider `CCN(CC)CCNC(=O)c1cccnc1Nc1ccc2c(c1)c1ccccc1n2CC` [Compound 4e, N-(2-(diethylamino)ethyl)-2-((9-ethyl-9H-carbazol-3-yl)amino)nicotinamide], for which the GI50 was found to be 18 µM in series [1] and 14 µM in series [3]. Also, the activity at 10 µM in series [2] is 99 ± 4.12%.
On to `CCn1c2ccccc2c2cc(Nc3ncccc3C(=O)Nc3cc(OC)c(OC)c(OC)c3)ccc21` [Compound 4f, 2-((9-ethyl-9H-carbazol-3-yl)amino)-N-(3,4,5-trimethoxyphenyl)nicotinamide], for which the GI50 in series [1] and in series [3] was above 50 µM throughout. The activity at 10 µM in series [2] came out at 92 ± 8.55%.
As for `CCn1c2ccccc2c2cc(Nc3ncccc3NC(=O)CCN3CCCCC3)ccc21` [Compound 7a, N-[2-(9-Ethyl-9H-carbazol-3-ylamino)-pyridin-3-yl]-3-piperidin-1-yl-propionamide], the figures for the GI50 in series [1] and in series [3] were 23 µM and 15 µM, respectively. Moreover, the activity at 10 µM in series [2] stood at 99 ± 4.29%.
On to `CCn1c2ccccc2c2cc(Nc3ncccc3NC(=O)c3cccnc3)ccc21` [Compound 7b, N-(2-((9-ethyl-9H-carbazol-3-yl)amino)pyridin-3-yl)nicotinamide], for which the GI50 in series [1] is 31 µM; in series [3], 41 µM. Besides, in series [2], the activity at 10 µM came out at 81 ± 11.1%.
Consider `CCn1c2ccccc2c2cc(Nc3ncccc3NCC(=O)N3CCOCC3)ccc21` [Compound 7c], for which the values for the GI50 in series [1] and in series [3] were above 50 µM and 23 µM, respectively. The “anti-proliferative activity / cytotoxicity in words” value in series [1] is recorded as “minimal cytotoxicity”. In series [2], this compound showed an activity at 10 µM of 81 ± 8.27%.
Consider `CCn1c2ccccc2c2cc(C(=O)Nc3cccnc3NCCCN3CCOCC3)ccc21` [Compound 11a, 9-Ethyl-9H-carbazole-3-carboxylic Acid [2-(3-morpholin-4-yl-propylamino)-pyridin-3-yl]-amide], for which the GI50 was found to be 39 µM in series [1] and 32 µM in series [3]. In addition, the activity at 10 µM in series [2] is 89 ± 10.1%.
Regarding `CCn1c2ccccc2c2cc(NC(=O)c3nccnc3C(=O)NCCN3CCOCC3)ccc21` [Compound 14a, N^2-(9-ethyl-9H-carbazol-3-yl)-N^3-(2morpholinoethyl)pyrazine-2,3-dicarboxamide], the GI50 in series [1] and in series [3] was above 50 µM in each case. In series [2], this compound yielded an activity at 10 µM of 91 ± 5.23%.
Take `CCn1c2ccccc2c2cc(NC(=O)c3nccnc3C(=O)NCCCN3CCOCC3)ccc21` [Compound 14b, N^2-(9-ethyl-9H-carbazol-3-yl)-N^3-(3-morpholinopropyl)pyrazine-2,3-dicarboxamide]: the GI50 in series [1] and in series [3] was above 50 µM in each case. In series [2], this compound returned an activity at 10 µM of 94 ± 5.87%.
For the compound `CCn1c2ccccc2c2cc(NC(=O)c3nccnc3C(=O)NCCCn3ccnc3)ccc21` [Compound 14c, Pyrazine-2,3-dicarboxylic acid 2-[(9-ethyl-9H-carbazol-3-yl)-amide]-3-[(3-imidazol-1-yl-propyl)-amide]], the GI50 in series [1] and in series [3] was above 50 µM throughout. The activity at 10 µM in series [2] came out at 99 ± 4.5%.
On to `CCn1c2ccccc2c2cc(NC(=O)c3nccnc3C(=O)NCCOC)ccc21` [Compound 14d, N^2-(9-ethyl-9H-carbazol-3-yl)-N^3-(2-methoxyethyl)pyrazine-2,3-dicarboxamide], for which the GI50 in series [1] and in series [3] was above 50 µM in each case. In series [2], this compound returned an activity at 10 µM of 100 ± 5.2%.
`CCn1c2ccccc2c2cc(NC(=O)c3ccccc3C(=O)NCCOC)ccc21` [Compound 14e, N^1-(9-ethyl-9H-carbazol-3-yl)-N^2-(2-methoxyethyl)phthalamide]: the GI50 in series [1] and in series [3] was above 50 µM in each case. Moreover, in series [2], the activity at 10 µM was found to be 99 ± 2.57%.
